Reference: PMC7822874, “Chemoprotective antimalarials identified through quantitative high-throughput screening of Plasmodium blood and liver stage parasites” (Scientific Reports, 2021)
Read-outs that look alike come from different tables or passages of the source.

Tests used:
[1] = tested on: Plasmodium falciparum Dd2 asexual blood stage parasites; assay: microbe, parasite or virus in culture; design: species or system Plasmodium falciparum Dd2 in human erythrocytes; single determination (one 11-point concentration-response curve); conditions: Plasmodium falciparum, DD2, Erythrocyte, 72 h; read-out: AC50
[2] = tested on: P. berghei-ANKA-GFP-LucCON liver stage parasites in HepG2-A16-CD81EGFP cells; assay: P. berghei liver stage Pb-Luc assay, Method 1 (UCSD, 1536-well); type: cell-based, Plasmodium berghei; conditions: for Max Resp (signal direction of the dose response) / AC50 / Log AC50 (M): Method 1; for Max Resp (signal direction of the dose response): Decrease = decreasing P. berghei viability with dose, Increase = increasing signal, Inactive = no dose response; for activity at 1 µM / activity at 3 µM: 48 h, average of 2 wells on a 1536 well plate; for activity at 1 µM: 1 uM (compounds provided at 10 mM); for activity at 3 µM: 3 uM (compounds provided at 10 mM)
[3] = tested on: luciferase-expressing P. berghei liver stage parasites in HepG2 cells; assay: Inhibition of liver-stage development assay (ILSDA), Method 2 (WRAIR, 96-well); type: cell-based, Plasmodium berghei; conditions: for Activity direction (Decrease / Inactive): P. berghei liver stage
in vitro = conditions: human; for viability at 48 h, 1 µM / viability at 48 h, 3 µM: HepG2-A16-CD81EGFP cells, uninfected
[4] = Method 2, Decrease = decreasing P. berghei viability with dose, Increase = increasing signal, Inactive = no dose response
[5] = Plasmodium berghei, HepG2, Method 2, Hill fit, 50% of maximum activity response, read-out: AC50
[6] = Plasmodium berghei, HepG2, Method 2, log10 of molar AC50 from Hill fit, read-out: Log AC50 (converted)
[7] = Plasmodium berghei, Hill fit, 50% of maximum activity response, read-out: AC50
[8] = Plasmodium berghei, log10 of molar AC50 from Hill fit, read-out: Log AC50 (converted)
[9] = Hill fit, 50% of maximum activity response, read-out: AC50
[10] = log10 of molar AC50 from Hill fit
[11] = Plasmodium berghei, HepG2, P. berghei liver stage, Method 2, dose response, read-out: AC50
[12] = Plasmodium berghei, HepG2, P. berghei liver stage, Method 2, dose response, read-out: Log AC50 (converted)

Structure (SMILES)	AC50 [1] [µM]	Max Resp (signal direction of the dose response) [2]	Max Resp (signal direction of the dose response) [3, 4]	AC50 [3, 5] [µM]	AC50 [3, 6] [µM]	other results
COc1ccc2nc(C)cc(Nc3ccc(Cl)c(Cl)c3)c2c1 [NCGC00098192-01]	2.66	Inactive	Decrease	0.398	0.398	–
O=C1c2ccccc2-n2c1nc1ccccc1c2=O [NCGC00160337]	–	–	–	–	–	viability (in vitro): 87%; Max Resp (signal direction of the dose response) [3]: Increase
Cc1ccc(-c2nn3c(=O)c4c([nH]c3c2C)CCCC4)cc1 [MLS000029798-01]	2.99	–	Decrease	0.282	0.282	activity at 1 µM ([2]; Plasmodium berghei, column 11, read-out: Pb-Luc (P. berghei liver stage), % of control, lower concentration, first repeat): 15%; activity at 1 µM ([2]; Plasmodium berghei, column 12, read-out: Pb-Luc (P. berghei liver stage), % of control, lower concentration, second repeat): 11%; activity at 3 µM ([2]; Plasmodium berghei, column 8, read-out: Pb-Luc (P. berghei liver stage), % of control, higher concentration, first repeat): 6.61%; activity at 3 µM ([2]; Plasmodium berghei, column 9, read-out: Pb-Luc (P. berghei liver stage), % of control, higher concentration, second repeat): 8%
Cc1ccc(C(=O)Nc2nc(-c3ccccn3)cs2)cc1S(=O)(=O)N1CCOCC1 [MLS002157637-01]	–	–	Inactive	–	–	viability at 48 h, 1 µM (in vitro): 92%; viability at 48 h, 3 µM (in vitro): 55%
CCOC(=O)c1c[nH]c2c3c(ccc2c1=O)CCCC3 [MLS000085191-01]	–	–	Increase	–	–	viability at 48 h, 1 µM (in vitro): 98%; viability at 48 h, 3 µM (in vitro): 106%
Cc1ccc(C(=O)Nc2nc(-c3ccccn3)cs2)cc1[S+](=O)([O-])N1CCOCC1.O=C(O)C(F)(F)F [NCGC00345210-01]	–	–	Inactive	–	–	viability at 48 h, 1 µM (in vitro): 73%; viability at 48 h, 3 µM (in vitro): 31%
CCOC(=O)c1[nH]c(C)c(CCC(=O)N2CCN(c3cccc(C)c3C)CC2)c1C [NCGC00134568-01]	1.33	Inactive	Decrease	0.562	0.562	–
CCOC(=O)c1[nH]c(C)c(CCC(=O)N2CCN(c3cc(Cl)ccc3C)CC2)c1C [NCGC00134588-01]	1.19	Inactive	Decrease	0.708	0.708	–
CCC(CC)c1cc([C@H]2CN3CC[C@H]2C[C@@H]3CNC(=O)Cc2cccs2)nc(-c2ccncc2)n1 [NCGC00400345-01]	2.99	Decrease	Decrease	0.251	0.251	AC50 [2, 7]: 5.62 µM; AC50 [2, 8]: 5.62 µM
COc1ccc(C2=Nn3c([n+](C)c4ccccc43)SC2)cc1 [MLS000717833-01]	–	–	Decrease	11.2	11.2	viability at 48 h, 1 µM (in vitro): 83%; viability at 48 h, 3 µM (in vitro): 63%
O=C(CCc1ccccc1)NC(c1cccs1)c1cc(Cl)c2cccnc2c1O (centres unmarked) [MLS000703748-01]	–	–	Inactive	–	–	viability at 48 h, 1 µM (in vitro): 113%; viability at 48 h, 3 µM (in vitro): 51%
CCC(CC)c1cc([C@H]2CN3CC[C@H]2C[C@@H]3CNC(C)=O)nc(-c2ccncc2)n1 [NCGC00394634-01]	15.3	Decrease	Decrease	0.355	0.355	–
c1ccc(CNc2nc(NCc3ccccc3)c3ccccc3n2)cc1 [NCGC00347066-01]	–	–	Inactive	–	–	viability at 48 h, 1 µM (in vitro): 83%; viability at 48 h, 3 µM (in vitro): 72%
Cc1cccc(N2CCN(c3nc4ccccc4c4nnc(C)n34)CC2)c1C [NCGC00107423-01]	5.31	Inactive	Decrease	0.089	0.0891	–
Cc1ccc2[nH]c(-c3ccccc3)cc(=O)c2c1 [MLS000112473-01]	4.73	–	Decrease	5.62	5.62	–
CC(C)c1ccc(CN2CC(CNc3cccnc3)C3(C2)CN(c2ccccc2)C3)cc1 (centres unmarked) [NCGC00415809-01]	4.85	–	–	–	–	Activity direction (Decrease / Inactive) ([3]; Method 2, dose response): Inactive
CCCCCCCc1c(C)[nH]c(N2CCOCC2)nc1=O [MLS000531187-01]	5.31	–	Decrease	5.62	5.62	–
Cc1nc2c(c(N3CCCC(COc4cccc(F)c4)C3)n1)CCNCC2 (centres unmarked) [NCGC00440030-01]	8.41	–	–	–	–	Activity direction (Decrease / Inactive) ([3]; Method 2, dose response): Inactive
COc1ccc(-n2nc(C)c([C@@H]3C=C[C@@H](NCc4ccc(N(C)C)cc4)C3)c2C)cc1 [NCGC00394616-01]	4.33	Decrease	Decrease	2.82	2.82	AC50 [2, 9]: 1.58 µM; Log AC50 (M) [2, 10]: -5.800 M; AC50 [2, 7]: 1.41 µM; AC50 [2, 8]: 1.41 µM
O=C(Nc1ccc2c(N3CCCCC3)ncnc2c1)c1cc(F)cc(F)c1 [NCGC00425525-01]	1.88	–	–	–	–	AC50 [2, 7]: 1.41 µM; AC50 [2, 8]: 1.41 µM; Activity direction (Decrease / Inactive) ([3]; Method 2, dose response): Decrease; AC50 [3, 11]: 0.398 µM; AC50 [3, 12]: 0.398 µM
Cc1cccc(N(C)c2nc3ccccc3c3nnc(C)n23)c1 [NCGC00126108-01]	1.06	Decrease	Decrease	–	–	AC50 [2, 7]: 0.316 µM; AC50 [2, 8]: 0.316 µM; AC50 ([3]; Method 2, Hill fit, 50% of maximum activity response, read-out: AC50): 0.447 µM; Log AC50 (M) ([3]; Method 2, log10 of molar AC50 from Hill fit): -6.350 M
COc1cccc(NC(=O)c2cccc3c(=O)c4c([nH]c23)CCCC4)c1 [NCGC00119838-01]	2.99	Inactive	Increase	–	–	–
COc1ccc(-c2ccc3ncc(Nc4ccncc4)n3n2)cc1OC [NCGC00412536-01]	4.85	–	Inactive	–	–	AC50 [2, 7]: 2.24 µM; AC50 [2, 8]: 2.24 µM
COc1cc(/C=C(\C#N)c2nc3ccccc3[nH]2)ccc1OCc1ccc(F)cc1 [NCGC00102606-01]	5.31	Decrease	Decrease	0.794	0.794	AC50 [2, 7]: 1.41 µM; AC50 [2, 8]: 1.41 µM
Oc1ccccc1CN1CC(CNc2cccnc2)C2(C1)CN(c1ccccc1)C2 (centres unmarked) [NCGC00415924-01]	10.9	–	–	–	–	Activity direction (Decrease / Inactive) ([3]; Method 2, dose response): Inactive
COc1ccc(-n2nc(C)c([C@@H]3C=C[C@@H](NCc4ccc(F)cc4)C3)c2C)cc1 [NCGC00421412-01]	1.37	Decrease	–	–	–	AC50 [2, 9]: 1.78 µM; Log AC50 (M) [2, 10]: -5.750 M; AC50 [2, 7]: 1.58 µM; AC50 [2, 8]: 1.58 µM; Activity direction (Decrease / Inactive) ([3]; Method 2, dose response): Decrease; AC50 [3, 11]: 3.98 µM; AC50 [3, 12]: 3.98 µM
COc1ccc2nc(C[C@@H]3C[C@@H](C(C)C)[C@H](CNCc4ccccc4O)C=C3C)[nH]c2n1 [NCGC00391280-01]	0.243	–	Inactive	–	–	AC50 [2, 7]: 1.58 µM; AC50 [2, 8]: 1.58 µM
